What was measured:
E. coli = assay: Bactericidal activity (bacterial viability) on Petri dishes; assay type: cell-based, Escherichia coli; conditions: 5 mg/ml (FIG. 9A)
Description: (§1) The concentrations of zinc-nocardamine, in four quadrants (1-4) of a Petri dish, were set as follows: 1-0 mg/ml; 2-5 mg/ml; 3-1.7 mg/ml; 4-0.5 mg/ml.
(§2) The anti-bacterial effect of zinc-nocardamine was assessed on the following types of pathogenic bacteria: E. coli (Gram-negative), P. aeruginosa (Gram-negative) and S. aureus (Gram-positive) (isolated in Hadassah-Ein Karem Hospital). More specifically, the experiment was performed as following: Each bacterial strain was grown overnight at 37° C., under aeration of 200 rpm, in the appropriate medium (EPEC (E. coli)) and P. aeruginosa in LB broth, S. aureus in BHI broth. Both media were purchased from BD (NJ, USA). Series of three-fold consecutive dilutions were performed in a 96-well plate, and bacteria were then added to the wells at a final OD600 of 0.01. The experiments with all three strains were performed in duplicate. Zinc-nocardamine 10 mg/ml aqueous solution was prepared in advance; prior to the experiment it was diluted in the appropriate media in a ratio of 1:2, to obtain a stock concentration of 5 mg/ml. This stock was further diluted to 1.7, 0.5, 0.18, 0.06, 0.02, 0.002, 0.0007, and 0.0002 mg/ml and added to appropriate wells. Then the plate was incubated in a plate reader for 24 h, and the kinetics of OD measurements were recorded every 20 minutes by Eon plate reader (BioTek, VE, USA). […]

IL-1α = IL-1α level in ear tissue of ICD mice (ELISA); assay type: in vivo, Balb/c female mice; conditions: t=6 h after croton oil, 0.5% ointment (FIG. 6A)
Description: (§3) The samples were homogenized, and protein concentration was measured by Bradford procedure. The concentration of cytokines was determined by ELISA method, using commercially available kits according to the Manufacturer's protocols (RayBiotech, GA, USA).
(§4) In order to study the underlying mechanism of the zinc-nocardamine complex, its assumed anti-inflammatory activity was tested by measuring the concentrations of various pro-inflammatory cytokines, in the ears, along the experimental protocol, specifically, IL-1α, IL-6, IL-17 and TNF-α. The concentration of these cytokines were measured in ear tissue that had been exposed to croton oil (at t=0) and was left untreated to t=6 h. The concentration was compared to the concentrations at t=6 h, in ears which were exposed at t=0, and treated with the complex at t=3 h.
(§5) The effect of ICD-induced inflammatory process on the concentration of IL-1α, IL-6, TNF-α and IL-17 within the ear tissue is shown in FIG. 6A-6D. […] The concentration of the cytokines was determined by ELISA method, using commercially available kits, according to the Manufacturer protocol (RayBiotech, GA, USA)

TNF-α = TNF-α level in ear tissue of ICD mice (ELISA); assay type: in vivo, Balb/c female mice; conditions: t=6 h after croton oil, 0.5% ointment (FIG. 6C)
Description: as §3, §4, §5

P. aeruginosa [1] = assay: Bactericidal activity (bacterial viability) on Petri dishes; assay type: cell-based, Pseudomonas aeruginosa; conditions: 5 mg/ml (FIG. 9B)
Description: as §1, §2

IL-13 = IL-13 level in ear tissue of ICD mice (ELISA); assay type: in vivo, Balb/c female mice; conditions: 0.5% ointment at t=3 h, measured at t=6 h (FIG. 7)
Description: as §3
The assumed anti-inflammatory activity of the zinc-nocardamine complex was tested by measuring the concentrations of various anti-inflammatory cytokines, specifically, IL-4, IL-10 and IL-13, in ear tissue of mice. The concentrations of these cytokines were measured and their pattern of change along the experiment was compared for each: at baseline t=0 (no exposure), at t=3 h after exposure to croton oil, at t=6 h after exposure to croton oil, and at 6 h after exposure to croton oil where these ears had been treated with the zinc-nocardamine complex at t=3 h after the exposure to the croton oil. […] The concentration of the cytokines was determined by ELISA method, using commercially available ELISA kits, according to the Manufacturer protocol (RayBiotech, GA, USA; Diaclone, Besançon, France).

S. aureus [2] = assay: Bacterial growth curves (OD, 96-well plate, 24 h); assay type: cell-based, Staphylococcus aureus
Description: as §2, with “Zinc-nocardamine 10 mg/ml aqueous solution was prepared in advance; prior to the experiment it was diluted in the appropriate media in a ratio of 1:2, to obtain a stock concentration of 5 mg/ml. This stock was further diluted to 1.7, 0.5, 0.18, 0.06, 0.02, 0.002, 0.0007, and 0.0002 mg/ml and added to appropriate wells.” left out
(§6) The anti-bacterial effect of zinc-nocardamine was assessed on the following types of pathogenic bacteria: E. coli (Gram-negative), P. aeruginosa (Gram-negative) and S. aureus (Gram-positive) (isolated in Hadassah-Ein Karem Hospital). […] The plate was then incubated in a plate reader for 24 h, and the kinetics of OD measurements were recorded, every 20 minutes. […]

IL-6 = IL-6 level in ear tissue of ICD mice (ELISA); assay type: in vivo, Balb/c female mice; conditions: t=6 h after croton oil, 0.5% ointment (FIG. 6B)
Description: as §3, §4, §5

IL-17 = IL-17 level in ear tissue of ICD mice (ELISA); assay type: in vivo, Balb/c female mice; conditions: t=6 h after croton oil, 0.5% ointment (FIG. 6D)
Description: as §3, §4, §5

E. coli (EPEC) = assay: Bacterial growth curves (OD, 96-well plate, 24 h); assay type: cell-based, Escherichia coli; conditions: 1.7 mg/ml (FIG. 8A)
Description: as §2, with “Zinc-nocardamine 10 mg/ml aqueous solution was prepared in advance; prior to the experiment it was diluted in the appropriate media in a ratio of 1:2, to obtain a stock concentration of 5 mg/ml. This stock was further diluted to 1.7, 0.5, 0.18, 0.06, 0.02, 0.002, 0.0007, and 0.0002 mg/ml and added to appropriate wells.” left out
as §6

P. aeruginosa [3] = assay: Bacterial growth curves (OD, 96-well plate, 24 h); assay type: cell-based, Pseudomonas aeruginosa; conditions: 1.7 mg/ml (FIG. 8B)
Description: as §2, with “Zinc-nocardamine 10 mg/ml aqueous solution was prepared in advance; prior to the experiment it was diluted in the appropriate media in a ratio of 1:2, to obtain a stock concentration of 5 mg/ml. This stock was further diluted to 1.7, 0.5, 0.18, 0.06, 0.02, 0.002, 0.0007, and 0.0002 mg/ml and added to appropriate wells.” left out
as §6

S. aureus [4] = assay: Bactericidal activity (bacterial viability) on Petri dishes; assay type: cell-based, Staphylococcus aureus; conditions: 5 mg/ml (FIG. 9C)
Description: as §1, §2

[5] = tested on: croton oil-induced irritant contact dermatitis (ICD) in mice ears; assay: Croton oil-induced irritant contact dermatitis (ICD) model, ear swelling; assay type: in vivo, Balb/c female mice
[6] = cited from earlier work
[7] = tested on: Bombyx mori (silkworm) ovary-derived cultured cell line cells; conditions: reported in the literature; cited from earlier work

zinc-nocardamine complex
bactericidal activity on E. coli (E. coli): bactericidal activity was obtained | concentration of IL-1α in ear tissue (IL-1α): reduced the concentration of the cytokines to nearly the basal level | concentration of TNF-α in ear tissue (TNF-α): reduced the concentration of the cytokines to nearly the basal level | bactericidal activity on P. aeruginosa (P. aeruginosa [1]): bactericidal activity was obtained | IL-13 level in ear tissue (IL-13): restoring the IL-13 level back to its baseline level | growth inhibition of S. aureus (S. aureus [2]; 0.5 mg/ml (FIG. 8C)): growth inhibition was observed | growth inhibition of S. aureus (S. aureus [2]; 1.7 mg/ml (FIG. 8C)): growth inhibition was observed | concentration of IL-6 in ear tissue (IL-6): reduced the concentration of the cytokines to nearly the basal level | concentration of IL-17 in ear tissue (IL-17): reduced the concentration of the cytokines to nearly the basal level | growth inhibition of E. coli (E. coli (EPEC)): growth inhibition was observed | growth inhibition of P. aeruginosa (P. aeruginosa [3]): mild inhibition | bactericidal activity on S. aureus (S. aureus [4]): bactericidal activity was obtained | optimal concentration in Vaseline-based ointment ([5]; dose-response 0.1, 0.2, 0.5%, applied 3 h after irritant (FIG. 3)): 0.5%

CC(=O)N(O)CCCCCNC(=O)CCC(=O)N(O)CCCCCNC(=O)CCC(=O)N(O)CCCCCN [desferrioxamine B]
water solubility [6]: about 50 mg/ml

O=C1CCC(=O)N(O)CCCCCNC(=O)CCC(=O)N(O)CCCCCNC(=O)CCC(=O)N(O)CCCCCN1 [nocardamine]
change of cell morphology [7]: change the morphology of insect Bombyx mori (silkworm) ovary-derived cultured cell line cells into spindle-like configuration | water solubility (description) [6]: soluble in water with heating | recovery from ICD versus untreated and zinc-nocardamine groups ([5]; 0.5% w/w ointment applied 3 h after croton oil (FIG. 2B)): recovered better than the untreated ones, their recovery was much slower than the recovery observed in mice that received zinc-nocardamine complex
